Results: US20040198774A1, “Preventive and/or remedial agent for disease attributable to arteriosclerotic activity” (priority 2001, published 2004)
pEC50: −log10 of the molar value.

Key:
[1] = system: MCP-1 secretion from human aortic endothelial cells (HAEC); test: Secretion of MCP-1 from TNF-α stimulated human aortic endothelial cells (ELISA); assay type: cell-based; conditions: test agent 0.03 to 30 μM, TNF-α 10 ng/mL for 4 hours, FIG. 2
Procedure: An effect on the secretion of MCP-1 from vascular endothelial cells was investigated using human aortic endothelial cells (available from Clonetics Corp., USA, and hereienafter abbreviated as “HAEC”). In usual, the HAEC cells were cultured in EGM-2 medium (Clonetics) containing 2% FBS (Clonetics) in a CO2 incubator (5% CO2, 37° C.). On the first day, the HAEC cells suspended in EGM-2 medium containing 2% FBS were seeded in 96-well plates at 1×10^5 cells/well and then cultured. On the second day, after the cells were washed with PBS, the culture medium was replaced with 200 μL of EGM-2 medium containing 0.4% FBS and the test agent at various concentrations (0.03 to 30 μM) (final DMSO concentration: 0.1%) to culture the cells for 24 hours. On the third day, after the cells were washed with PBS, the culture medium was replaced with 200 μL of EGM-2 medium containing 0.4% FBS, TNF-α (10 ng/mL), and the test agent at various concentrations (0.03 to 30 μM) (final DMSO concentration: 0.1%) to stimulate the cells for 4 hours. After stimulation with TNF-α, the culture medium was collected to measure the MCP-1 concentration of the culture medium by the use of a human MCP-1 ELISA kit (Biosource).

[2] = system: VCAM-1 expression in human aortic endothelial cells (HAEC); test: Expression of VCAM-1 in TNF-α stimulated human aortic endothelial cells (cell ELISA); assay type: cell-based; conditions: test agent 0.03 to 30 μM, TNF-α 10 ng/mL for 4 hours, FIG. 1
Procedure: An effect on the expression of adhesion molecules in vascular endothelial cells was investigated using human aortic endothelial cells (available from Clonetics Corp., USA, and hereinafter abbreviated as “HAEC”). In usual, the HAEC cells were cultured in EGM-2 medium (Clonetics) containing 2% FBS (Clonetics) in a CO2 incubator (5% CO2, 37° C.). On the first day, the HAEC cells suspended in EGM-2 medium containing 2% FBS were seeded in 96-well plates at 1×10^5 cells/well and then cultured. On the second day, after the cells were washed with PBS, the culture medium was replaced with 200 μL of EGM-2 medium containing 0.4% FBS and the test agent at various concentrations (0.03 to 30 μM) (final DMSO concentration: 0.1%) to culture the cells for 24 hours. On the third day, after the cells were washed with PBS, the culture medium was replaced with 200 μL of EGM-2 medium containing 0.4% FBS, TNF-α (10 ng/mL) and the test agent at various concentrations (0.03 to 30 μM) (final DMSO concentration: 0.1%) to stimulate the cells for 4 hours. After stimulation with TNF-α, the cells were washed with PBS, and then the amount of VCAM-1 expressed was evaluated according to the following cell ELISA method using an anti-human VCAM-1 antibody solution (PharMingen). Namely, the cells were fixed and blocked using paraformaldehyde, and then 200 μL of the anti-human VCAM-1 antibody solution (PharMingen) was added as a primary antibody to induce a primary antibody response for overnight incubation. Next day, 200 μL of HRP-labeled anti-Mouse IgG (γ+L) Goat F (Ab7)2 was added as a secondary antibody to induce a secondary antibody response for 4 hours, and then a substrate solution (ortho-phenylenediamine and hydrogen peroxide) was added. After reaction, the absorbance was measured using a microplate spectrophotometer, and the obtained absorbance was used as an index of the amount of VCAM-1 expressed.

human PPARα = molecular target: T1, human PPARα (Homo sapiens, UniProt Q07869); test: cell-based
T1 sequence (Q07869 239-466 limits assumed): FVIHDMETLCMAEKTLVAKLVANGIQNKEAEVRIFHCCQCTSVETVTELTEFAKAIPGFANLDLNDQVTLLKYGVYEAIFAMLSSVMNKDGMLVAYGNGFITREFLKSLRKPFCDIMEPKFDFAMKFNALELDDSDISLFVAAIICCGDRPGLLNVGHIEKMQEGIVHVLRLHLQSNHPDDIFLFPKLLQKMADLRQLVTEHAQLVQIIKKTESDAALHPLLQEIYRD
Procedure: (§1) On the second day, a transfection mixture, which contained with 9 μL of TransIT-LT1 (Takara), 2 μg of the Gal4-hPPARα (LBD) vector, the Gal4-hPPARγ (LBD) vector or the Gal4-hPPARδ (LBD) vector, 1 μg of the Gal4-Luc and 200 μL of DMEM (without FBS), was gently added to the cells at 200 μL per well. The cells were cultured all day and night to carry out gene introduction to the cells. For the investigation of the specificity of the effect on the introduced PPAR genes, gene introduction was carried out in the same manner described above using a vector without PPAR ligand-binding domain (hereinafter abbreviated as a “Gal4-control vector”). On the third day, the cells in 3 wells of the 6-well plates were combined to adjust the concentration of cells to 3×10^5 cells/mL, and the obtained one was dispensed in 96-well plates at 100 μL/well to culture the cells. On the fourth day, the culture medium was replaced with 50 μL of the DMEM (+) containing the test compound at various concentrations (0.03 to 30 μM) (final DMSO concentration: 0.1%) to culture the cells. After the cells were exposed to the compound for 32 hours, 50 μL of Luc-Screen (Applied Biosystems) was added. 70 μL of the reaction solution in each well was moved to white plates to measure luminescence emitted due to the reaction of luciferase by the use of a Microplate Luminometer (EG & G berthold, LB96P).

human PPARγ = molecular target: T2, human PPARγ (Homo sapiens, UniProt P37231); test: PPARγ transcription activation, Gal4-hPPARγ (LBD)/Gal4-Luc reporter in 293 T cells; assay type: cell-based; conditions: Gal4-hPPARγ (LBD) luciferase reporter, 32 hours exposure, 0.03 to 30 μM, read-out: EC50 values of PPARs transcription activation effect, PPARγ
T2 construct: expressed in transfected cells; host or cells: 293 T cells
T2 sequence (P37231 238-503 limits assumed): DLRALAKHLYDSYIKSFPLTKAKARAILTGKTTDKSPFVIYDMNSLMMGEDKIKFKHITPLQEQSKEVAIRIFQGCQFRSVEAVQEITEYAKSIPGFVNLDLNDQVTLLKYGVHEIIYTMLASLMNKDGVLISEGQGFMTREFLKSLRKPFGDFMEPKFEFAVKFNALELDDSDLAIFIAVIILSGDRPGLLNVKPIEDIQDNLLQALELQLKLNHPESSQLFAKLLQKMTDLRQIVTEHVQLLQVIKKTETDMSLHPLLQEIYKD

human PPARδ = molecular target: T3, human PPARδ (Homo sapiens, UniProt Q03181); test: PPARδ transcription activation, Gal4-hPPARδ (LBD)/Gal4-Luc reporter in 293 T cells; assay type: cell-based; conditions: Gal4-hPPARδ (LBD) luciferase reporter, 32 hours exposure, 0.03 to 30 μM, read-out: EC50 values of PPARs transcription activation effect, PPARδ
T3 construct: expressed in transfected cells; host or cells: 293 T cells
T3 sequence (Q03181 211-439 limits assumed): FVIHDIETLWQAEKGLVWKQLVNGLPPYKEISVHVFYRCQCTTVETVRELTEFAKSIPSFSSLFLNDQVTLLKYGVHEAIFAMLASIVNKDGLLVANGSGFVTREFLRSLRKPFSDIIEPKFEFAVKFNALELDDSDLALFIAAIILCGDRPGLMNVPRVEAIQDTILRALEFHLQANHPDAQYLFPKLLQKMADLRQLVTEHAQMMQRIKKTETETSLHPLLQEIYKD
Procedure: as §1

pEC50 (human PPARα) | pEC50 (human PPARγ) | pEC50 (human PPARδ) | SMILES | effect on the secretion of MCP-1 induced by stimulation with TNF-α [1] | effect on the expression of VCAM-1 induced by stimulation with TNF-α [2]
– | – | – | CC(C)OC(=O)C(C)(C)Oc1ccc(C(=O)c2ccc(Cl)cc2)cc1 [Fenofibrate] | no effect | –
– | – | – | Cc1cc(SCc2sc(-c3ccc(C(F)(F)F)cc3)nc2C)ccc1OCC(=O)O [GW501516] | suppressed | suppressed
6.00 | 5.21 | 5.92 | O=C1NC(=O)C(Cc2ccc3cc(OCc4ccccc4F)ccc3c2)S1 (stereo not drawn) [MCC-555, 5-[6-(2-fluorobenzyloxy)-2-naphthyl]-methyl-thiazolidine-2,4-dione] | – | –
– | – | – | CCc1ccc(CCOc2ccc(CC3SC(=O)NC3=O)cc2)nc1 (stereo not drawn) [Pioglitazone] | no effect | no effect
– | – | – | CN(CCOc1ccc(CC2SC(=O)NC2=O)cc1)c1ccccn1 (stereo not drawn) [Rosiglitazone] | no effect | no effect
– | – | – | Cc1cccc(Nc2cc(Cl)nc(SCC(=O)O)n2)c1C [Wy-14643] | no effect | suppressed
